{
  "source": "patent US12220412B2",
  "about": "“Methods for administering corticosteroids” (Sparrow Pharmaceuticals, Inc., priority 2018, dated 2025)",
  "assay": "Population pharmacokinetics model for Compound A from two clinical trials",
  "format": "in vivo, human",
  "protocol": "On the basis of data from two Compound A clinical trials, a population pharmacokinetics model (FIG. 4) was developed using a maximal dose of 20 mg. The selected model to describe the pharmacokinetics of Compound A was a two-compartment disposition model, with a 4-compartment transit absorption, saturable binding from the central compartment, and first-order elimination. Inter-individual variability was implemented on clearance (CL), volume of distribution (V2), absorption rate constant (kA), second order association constant (Kon), first order dissociation constant (Koff), and total number of saturable binding receptors (R). This model had satisfactory goodness-of-fit and acceptable relative standard errors.\nCL, kA, R, Kon, and Koff are defined above. BAV is relative bioavailability, kTR is a transit rate constant (equal to kA), k23 and k32 are transfer rate constants between central and peripheral compartments.\nThe covariate effect was moderate (25% increase of BAV in 88-year old subjects compared to 36-year old subjects).",
  "data": [
    {"molecule": "Cn1c(-c2ccc(C(N)=O)cc2F)nnc1C(C)(C)Oc1c(F)cc(Cl)cc1F", "note": "[Compound A]", "values": [
      {"measurement": "increase of BAV (relative bioavailability), covariate effect of age", "setting": "88-year old subjects compared to 36-year old subjects", "value": 25, "unit": "%"},
      {"measurement": "Covariate: age on BAV (relative bioavailability), estimate", "setting": "population PK model", "value": 0.200},
      {"measurement": "Koff (first order dissociation constant, saturable binding), estimate", "setting": "population PK model", "value": "5.83e-05", "unit": "s⁻¹"},
      {"measurement": "Kon (second order association constant, saturable binding), estimate", "setting": "population PK model", "value": 0.0682, "unit": "µg⁻¹ h⁻¹"},
      {"measurement": "R (total number of saturable binding receptors), estimate", "setting": "population PK model", "value": 3170, "unit": "nmol"},
      {"measurement": "V2 (volume of distribution), estimate", "setting": "population PK model", "value": 90.2, "unit": "L/70 kg"},
      {"measurement": "amount of Compound A corresponding to estimated total number of saturable binding receptors", "setting": "population PK model", "value": 1.347, "unit": "mg"},
      {"measurement": "k23 (transfer rate constant between central and peripheral compartments), estimate", "setting": "population PK model", "value": "0.00341 h^−1/(70 kg)^−0.25"},
      {"measurement": "k32 (transfer rate constant between central and peripheral compartments), estimate", "setting": "population PK model", "value": "0.0255 h^−1/(70 kg)^−0.25"},
      {"measurement": "kA (absorption rate constant), estimate", "setting": "population PK model", "value": 5.38, "unit": "h⁻¹"},
      {"measurement": "CL (clearance), estimate", "setting": "population PK model, doses up to 20 mg", "value": "7.24 L/h/(70 kg)^0.75"}
    ]}
  ]
}
